Reference: patent US11986471B2, “Compounds and methods of use” (Tango Therapeutics, Inc., priority 2018, dated 2024)

Experiments:
PRMT5 [1] = biological target: T1, PRMT5 (Homo sapiens, UniProt O14744); assay: PRMT5 IC50 assay with no cofactor; type: biochemical
T1 construct: purchased Viva (custom protein)
Summary of the method: (§1)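 Three cofactor conditions tested for PRMT5 inhibition: none, MTA and SAM, each giving an IC50. For conversion to Ki, the MTA-condition IC50 is divided by 13.5 and the SAM-condition IC50 by 1.5, and the two Ki values are expressed as a SAM/MTA ratio.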

PRMT5 [2] = biological target: T1, PRMT5; assay: PRMT5 IC50 assay in the presence of SAM as cofactor; type: biochemical
Summary of the method: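 Each compound is tested on PRMT5 in the presence of SAM, of MTA, and without any cofactor. Ki values are then back-calculated using fixed factors of 1.5 (SAM) and 13.5 (MTA), and the two Ki values are compared as a ratio.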

HAP1 MTAP-deleted = assay: SDMA in-cell western assay, HAP1 MTAP-deleted cell line; type: cell-based; settings: for IC50: Homo sapiens, HAP1 MTAP-deleted cell line; for MTAP Intact/Deleted Ratio: IC50 ratio HAP1 MTAP-intact / HAP1 MTAP-deleted
Summary of the method: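 IC50 from SDMA in-cell western; HAP1 line lacking MTAP (null), paired isogenically with MTAP-intact HAP1 expressing endogenous MTAP.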

HAP1 MTAP-intact = assay: SDMA in-cell western assay, HAP1 MTAP-intact cell line; type: cell-based; settings: Homo sapiens
Summary of the method: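 HAP1 isogenic pair: endogenous MTAP vs MTAP-null. Readout SDMA by in-cell western; IC50 per line. Ratio ≥3 fold = MTAP-selective.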

PRMT5 [3] = biological target: T1, PRMT5; assay: PRMT5 IC50 assay in the presence of MTA as cofactor; type: biochemical; settings: for IC50: PRMT5, MTA as cofactor; for SAM/MTA Ratio: ratio between the Ki in the presence of SAM and the Ki in the presence of MTA
Summary of the method: as §1

T1 sequence (O14744 whole entry): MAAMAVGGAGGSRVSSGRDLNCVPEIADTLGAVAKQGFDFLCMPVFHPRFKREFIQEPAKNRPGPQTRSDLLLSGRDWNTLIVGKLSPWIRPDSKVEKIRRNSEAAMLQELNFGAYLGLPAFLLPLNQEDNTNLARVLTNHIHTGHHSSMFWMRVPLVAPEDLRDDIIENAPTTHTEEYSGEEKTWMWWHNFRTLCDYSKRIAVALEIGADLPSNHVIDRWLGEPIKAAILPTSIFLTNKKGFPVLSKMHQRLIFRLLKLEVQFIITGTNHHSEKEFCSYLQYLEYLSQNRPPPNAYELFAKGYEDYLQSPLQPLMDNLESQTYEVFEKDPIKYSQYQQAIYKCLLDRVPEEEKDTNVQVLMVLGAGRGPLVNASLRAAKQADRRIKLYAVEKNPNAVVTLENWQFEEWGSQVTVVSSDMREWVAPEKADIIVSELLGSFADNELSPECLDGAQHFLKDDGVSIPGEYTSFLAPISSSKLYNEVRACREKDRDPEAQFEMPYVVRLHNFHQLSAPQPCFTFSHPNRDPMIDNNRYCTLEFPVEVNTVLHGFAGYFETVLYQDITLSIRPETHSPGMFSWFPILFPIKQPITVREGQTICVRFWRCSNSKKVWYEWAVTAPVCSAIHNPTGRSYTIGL
T1 sequence (Q9BQA1 whole entry partner): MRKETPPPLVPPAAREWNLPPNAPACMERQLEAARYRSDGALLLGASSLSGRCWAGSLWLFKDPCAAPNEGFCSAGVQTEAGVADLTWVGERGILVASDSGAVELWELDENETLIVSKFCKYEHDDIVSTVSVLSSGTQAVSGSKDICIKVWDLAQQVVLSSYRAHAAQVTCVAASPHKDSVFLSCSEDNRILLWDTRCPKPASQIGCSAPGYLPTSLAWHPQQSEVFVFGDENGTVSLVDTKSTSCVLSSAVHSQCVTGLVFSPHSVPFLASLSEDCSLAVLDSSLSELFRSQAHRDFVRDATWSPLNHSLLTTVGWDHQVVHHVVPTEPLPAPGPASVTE

IC50 (PRMT5 [1]) [nM] | IC50 (PRMT5 [2]) [nM] | IC50 (HAP1 MTAP-deleted) [nM] | IC50 (HAP1 MTAP-intact) [nM] | IC50 (PRMT5 [3]) [nM] | SMILES | MTAP Intact/Deleted Ratio (HAP1 MTAP-deleted) | SAM/MTA Ratio (PRMT5 [3])
≥ 5000 | 50 to 500 | 1000 to 10000 | 1000 to 10000 | 50 to 500 | CC(C)CC(=O)N1CC(Nc2cc(C(=O)NC[C@H](O)CN3CCc4cc(OCc5cnco5)ccc4C3)ccn2)C1 [Compound 474, N-[(2S)-2-hydroxy-3-[6-(oxazol-5-ylmethoxy)-3,4-dihydro-1H-isoquinolin-2-yl]propyl]-2-[[1-(3-methylbutanoyl)azetidin-3-yl]amino]pyridine-4-carboxamide] | B* (an IC50 ratio greater than or equal to 3 fold but lower than 10 fold between the IC50 in the HAP1 MTAP-intact cell line and the HAP1 MTAP-deleted cell line) | A (a Ki ratio greater than or equal to 10 fold between the Ki in the presence of SAM and the Ki in the presence of MTA)
≥ 5000 | 500 to 5000 | 1000 to 10000 | 1000 to 10000 | 50 to 500 | Cc1ncoc1COc1ccc2c(c1)CCN(C[C@@H](O)CNC(=O)c1ccc(OC3CCOCC3)cc1)C2 [Compound 475, N-[(2S)-2-hydroxy-3-{6-[(4-methyl-1,3-oxazol-5-yl)methoxy]-1,2,3,4-tetrahydroisoquinolin-2-yl}propyl]-4-(oxan-4-yloxy)benzamide] | C* (an IC50 ratio of less than 3 fold between the IC50 in the HAP1 MTAP-intact cell line and the HAP1 MTAP-deleted cell line) | A (a Ki ratio greater than or equal to 10 fold between the Ki in the presence of SAM and the Ki in the presence of MTA)
≥ 5000 | 500 to 5000 | ≥ 10000 | ≥ 10000 | 50 to 500 | Cc1c(OCc2cnco2)ccc2c1CCN(C[C@@H](O)CNC(=O)c1ccnc(NC3CCC3C3CCC3)c1)C2 (stereo partly drawn) [Compound 476, 2-([1,1′-bi(cyclobutan)]-2-ylamino)-N—((S)-2-hydroxy-3-(5-methyl-6-(oxazol-5-ylmethoxy)-3,4-dihydroisoquinolin-2(1H)-yl)propyl)isonicotinamide] | C* (an IC50 ratio of less than 3 fold between the IC50 in the HAP1 MTAP-intact cell line and the HAP1 MTAP-deleted cell line) | A (a Ki ratio greater than or equal to 10 fold between the Ki in the presence of SAM and the Ki in the presence of MTA)
≥ 5000 | 50 to 500 | 1000 to 10000 | ≥ 10000 | 50 to 500 | CCN(C)c1nc(NC2COC2)cc(C(=O)NC[C@H](O)CN2CCc3c(ccc(OCc4ocnc4C)c3C)C2)n1 [Compound 477] | B* (an IC50 ratio greater than or equal to 3 fold but lower than 10 fold between the IC50 in the HAP1 MTAP-intact cell line and the HAP1 MTAP-deleted cell line) | A (a Ki ratio greater than or equal to 10 fold between the Ki in the presence of SAM and the Ki in the presence of MTA)
≥ 5000 | 500 to 5000 | ≥ 10000 | ≥ 10000 | 50 to 500 | CCN(C)c1cc(C(=O)NC[C@H](O)CN2CCc3c(ccc(OCc4ocnc4C)c3C)C2)cc(NC2CCC2)n1 [Compound 478, 2-(cyclobutylamino)-6-[ethyl(methyl)amino]-N-[(2S)-2-hydroxy-3-{5-methyl-6-[(4-methyl-1,3-oxazol-5-yl)methoxy]-1,2,3,4-tetrahydroisoquinolin-2-yl}propyl]pyridine-4-carboxamide] | C* (an IC50 ratio of less than 3 fold between the IC50 in the HAP1 MTAP-intact cell line and the HAP1 MTAP-deleted cell line) | A (a Ki ratio greater than or equal to 10 fold between the Ki in the presence of SAM and the Ki in the presence of MTA)
≥ 5000 | 500 to 5000 | 1000 to 10000 | 1000 to 10000 | 50 to 500 | CC(C)C(=O)N1CC(Nc2cc(C(=O)NC[C@H](O)CN3CCc4cc(OCc5cnco5)ccc4C3)ccn2)C1 [Compound 479, N-[(2S)-2-hydroxy-3-[6-(oxazol-5-ylmethoxy)-3,4-dihydro-1H-isoquinolin-2-yl]propyl]-2-[[1-(2-methylpropanoyl)azetidin-3-yl]amino]pyridine-4-carboxamide] | C* (an IC50 ratio of less than 3 fold between the IC50 in the HAP1 MTAP-intact cell line and the HAP1 MTAP-deleted cell line) | A (a Ki ratio greater than or equal to 10 fold between the Ki in the presence of SAM and the Ki in the presence of MTA)
≥ 5000 | 50 to 500 | ≥ 10000 | ≥ 10000 | 50 to 500 | CCCN(C)c1cc(C(=O)NC[C@H](O)CN2CCc3c(ccc(OCc4ocnc4C)c3C)C2)cc(NC2CCC2)n1 [Compound 480, 2-(cyclobutylamino)-N-[(2S)-2-hydroxy-3-{5-methyl-6-[(4-methyl-1,3-oxazol-5-yl)methoxy]-1,2,3,4-tetrahydroisoquinolin-2-yl}propyl]-6-[methyl(propyl)amino]pyridine-4-carboxamide] | C* (an IC50 ratio of less than 3 fold between the IC50 in the HAP1 MTAP-intact cell line and the HAP1 MTAP-deleted cell line) | A (a Ki ratio greater than or equal to 10 fold between the Ki in the presence of SAM and the Ki in the presence of MTA)
500 to 5000 | 50 to 500 | < 1000 | < 1000 | 50 to 500 | CC(C)C(=O)N1CCN(c2cc(C(=O)NC[C@H](O)CN3CCc4cc(OCc5cnco5)ccc4C3)cc(NC3CCC3)n2)CC1 [Compound 481, (S)-2-(cyclobutylamino)-N-(2-hydroxy-3-(6-(oxazol-5-ylmethoxy)-3,4-dihydroisoquinolin-2(1H)-yl)propyl)-6-(4-isobutyrylpiperazin-1-yl)isonicotinamide] | C* (an IC50 ratio of less than 3 fold between the IC50 in the HAP1 MTAP-intact cell line and the HAP1 MTAP-deleted cell line) | A (a Ki ratio greater than or equal to 10 fold between the Ki in the presence of SAM and the Ki in the presence of MTA)
≥ 5000 | 500 to 5000 | ≥ 10000 | ≥ 10000 | 500 to 5000 | O=C(NC[C@H](O)CN1CCc2c(ccc(OCc3cnco3)c2Cl)C1)c1ccc(OC2CCOCC2)cc1 [Compound 482, (S)—N-(3-(5-chloro-6-(oxazol-5-ylmethoxy)-3,4-dihydroisoquinolin-2(1H)-yl)-2-hydroxypropyl)-4-((tetrahydro-2H-pyran-4-yl)oxy)benzamide] | C* (an IC50 ratio of less than 3 fold between the IC50 in the HAP1 MTAP-intact cell line and the HAP1 MTAP-deleted cell line) | A (a Ki ratio greater than or equal to 10 fold between the Ki in the presence of SAM and the Ki in the presence of MTA)
≥ 5000 | 500 to 5000 | 1000 to 10000 | ≥ 10000 | 50 to 500 | O=C(NC[C@H](O)CN1CCc2c(ccc(OCc3cnco3)c2Cl)C1)c1ccnc(N[C@H]2CC[C@H](C(F)(F)F)CC2)c1 [Compound 483, N—((S)-3-(5-chloro-6-(oxazol-5-ylmethoxy)-3N-dihydroisoquinolin-2(1H)-yl)-2-hydroxypropyl)-2-(((1RNS)-4-(trifluoromethyl)cyclohexy)amino)isonicotinamide] | C* (an IC50 ratio of less than 3 fold between the IC50 in the HAP1 MTAP-intact cell line and the HAP1 MTAP-deleted cell line) | A (a Ki ratio greater than or equal to 10 fold between the Ki in the presence of SAM and the Ki in the presence of MTA)
500 to 5000 | 50 to 500 | 1000 to 10000 | ≥ 10000 | 50 to 500 | Cc1c(OCc2cnco2)ccc2c1CCN(C[C@@H](O)CNC(=O)c1ccnc(NC3CCN(C(=O)C4CC4)CC3)c1)C2 [Compound 484, (S)-2-((1-(cyclopropanecarbonyl)piperidin-4-yl)amino)-N-(2-hydroxy-3-(5-methyl-6-(oxazol-5-ylmethoxy)-3N-dihydroisoquinolin-2(1H)-yl)propyl)isonicotinamide] | B* (an IC50 ratio greater than or equal to 3 fold but lower than 10 fold between the IC50 in the HAP1 MTAP-intact cell line and the HAP1 MTAP-deleted cell line) | A (a Ki ratio greater than or equal to 10 fold between the Ki in the presence of SAM and the Ki in the presence of MTA)
500 to 5000 | 50 to 500 | < 1000 | < 1000 | 50 to 500 | Cc1ncoc1COc1ccc2c(c1)CCN(C[C@@H](O)CNC(=O)c1cc(NC3CCC3)nc(N3CCN(C)CC3)c1)C2 [Compound 485, 2-(cyclobutylamino)-N-[(2S)-2-hydroxy-3-{6-[(4-methyl-1,3-oxazol-5-yl)methoxy]-1,2,3,4-tetrahydroisoquinolin-2-yl}propyl]-6-(4-methylpiperazin-1-yl)pyridine-4-carboxamide] | C* (an IC50 ratio of less than 3 fold between the IC50 in the HAP1 MTAP-intact cell line and the HAP1 MTAP-deleted cell line) | A (a Ki ratio greater than or equal to 10 fold between the Ki in the presence of SAM and the Ki in the presence of MTA)
